# Assay results taken from ChEMBL document CHEMBL3091337, “Novel piperidinylamino-diarylpyrimidine derivatives with dual structural conformations as potent HIV-1 non-nucleoside reverse transcriptase inhibitors” (Bioorg Med Chem Lett, 2013).
# Structures can show the parent of a compound that is named as a salt.
# Experiments:
# [1] = Cytotoxicity against human MT4 cells after 5 days by MTT assay; type: cell-based
# [2] = system: Human immunodeficiency virus 1; experiment: Antiviral activity against drug-resistant HIV1 RES056 harboring reverse transcriptase K103N/Y181C double mutant infected in human MT-4 cells assessed as protection against virus-induced cytopathicity after 5 days by MTT assay; type: functional, organism-based; details: Human immunodeficiency virus 1, RES056, MT4, 120 h
# [3] = system: Human immunodeficiency virus 1; experiment: Antiviral activity against HIV1 3B infected in human MT-4 cells assessed as protection against virus-induced cytopathicity after 5 days by MTT assay; type: functional, organism-based; details: Human immunodeficiency virus 1, 3B, MT4, 120 h
# [4] = Selectivity index, ratio of CC50 for human MT4 cells to EC50 for drug-resistant HIV1 RES056 harboring reverse transcriptase K103N/Y181C double mutant; type: toxicity, cell-based; details: read-out: Ratio CC50/EC50
# [5] = Selectivity index, ratio of CC50 for human MT4 cells to EC50 for HIV1 3B; type: toxicity, cell-based; details: read-out: Ratio CC50/EC50
# [6] = molecular target: Human immunodeficiency virus type 1 reverse transcriptase (Human immunodeficiency virus 1, UniProt Q72547); experiment: Inhibition of recombinant HIV1 reverse transcriptase using poly rA:dT as template/primer after 1 hr by ELISA
SMILES,CC50 at 120 h [1],EC50 [2],EC50 [3],selectivity ratio [4],selectivity ratio [5],IC50 [6]
Cc1ccnc2c1NC(=O)c1cccnc1N2C1CC1 [NEVIRAPINE],> 15 µM,2.5 µM,0.17 µM,–,–,–
CC(C)Nc1cccnc1N1CCN(C(=O)c2cc3cc(NS(C)(=O)=O)ccc3[nH]2)CC1 [DELAVIRDINE MESYLATE],> 36 µM,> 36 µM,0.13 µM,1,> 227,–
Cc1cc(C#N)cc(C)c1Oc1cc(NC2CCNCC2)nc(Nc2ccc(C#N)cc2)n1,4.2 µM,0.95 µM,0.038 µM,4,112,–
Cc1cc(C)c(Oc2cc(NC3CCN(Cc4ccc(S(C)(=O)=O)cc4)CC3)nc(Nc3ccc(C#N)cc3)n2)c(C)c1,124 µM,≥ 16 µM,0.13 µM,≤ 8,934,–
Cc1cc(C)c(Nc2cc(NC3CCN(Cc4ccc(S(N)(=O)=O)cc4)CC3)nc(Nc3ccc(C#N)cc3)n2)c(C)c1,6.4 µM,> 6.4 µM,0.077 µM,< 1,83,–
Cc1cc(C#N)cc(C)c1Oc1cc(NC2CCN(Cc3ccc(S(C)(=O)=O)cc3)CC2)nc(Nc2ccc(C#N)cc2)n1,> 206 µM,> 206 µM,0.058 µM,1,> 3550,–
Cc1cc(C)c(Oc2cc(NC3CCN(Cc4ccncc4)CC3)nc(Nc3ccc(C#N)cc3)n2)c(C)c1,11 µM,> 11 µM,0.24 µM,< 1,44,–
Cc1cc(C#N)cc(C)c1Oc1cc(NC2CCN(Cc3ccncc3)CC2)nc(Nc2ccc(C#N)cc2)n1,100 µM,4.6 µM,0.047 µM,22,2140,33 µM
O=C1Nc2ccc(Cl)cc2[C@@](C#CC2CC2)(C(F)(F)F)O1 [EFAVIRENZ],> 6.3 µM,–,0.007 µM,–,–,–
Cc1cc(C)c(Oc2cc(NC3CCN(Cc4ccc(S(N)(=O)=O)cc4)CC3)nc(Nc3ccc(C#N)cc3)n2)c(C)c1,11 µM,> 28 µM,0.19 µM,< 1,61,–
Cc1cc(C#N)cc(C)c1Oc1cc(NC2CCN(Cc3ccc(S(N)(=O)=O)cc3)CC2)nc(Nc2ccc(C#N)cc2)n1,12 µM,3.9 µM,0.13 µM,3,93,–
Cc1cc(C)c(Oc2cc(NC3CCNCC3)nc(Nc3ccc(C#N)cc3)n2)c(C)c1,9.6 µM,≥ 1.8 µM,0.14 µM,≤ 5,69,–
